Measured values as given in US20110178456A1, “ASSISTING TRANSDERMAL DRUG DELIVERY BY MEANS OF TISSUE FREEZING, VACUUM PRESSURE AND PHOTOHEATING PROCEDURES” (THE REGENTS OF THE UNIVERSITY OF CALIFORNIA, priority 2009, published 2011).

Tests used:
[1] = format: in vitro ADME, pork
Experimental: A study comprising applying conjugated FITC-Dextran with 4000 Daltons molecular weight as a surrogate of water-soluble drugs on ex vivo pork skin samples was performed. Thermoelectric coolers and other cooling devices can be used as well. In these experiments […] was used as the cryogenic agent. Exposure time can range from minutes to millisecond exposures, depending on the type of coolant used. […] For applying suction, any method of creating suction or positive pressure on the skin can be used. For example, the Isolaze device from […] can be used to apply a suction of 380 mm Hg. To investigate this, a study was initiated consisting of applying conjugated FITC-Dextran with 4000 Daltons molecular weight as a surrogate of water-soluble drugs on ex vivo pork skin samples. After exposing skin samples for 30 min to 3 hours after topical application, a cross-sections of skin was cut ( 20 microns thick) to observe directly the Dextran penetration via the intensity of the FITC fluorescence with the aid of a confocal fluorescent microscope.

[2] = Case clinical study: penetration after topical application with cryo-cracking versus simple rubbing; format: in vivo; details: 3 hrs after topical application using cryo-cracking procedure
Excerpt: This study also included FITC with Dextran of 4 kDa and 70 kDA.

| transdermal delivery of drug surrogate using the cryo-cracking process [1] | penetration into the stratum corneum and epidermis down the microcracks, compared to penetration after simple rubbing [2] | Compound |
| --- | --- | --- |
| delivered |  | Dylight |
| effectively delivered | much more significant | O=C1OC2(c3ccc(O)cc3Oc3cc(O)ccc32)c2ccc(N=C=S)cc21 [FITC] |
